Values joined by “and” are separate entries in the source; they are usually repeats but may differ in a detail not shown here. Equal entries are not always repeated.
What was measured:
[1] = DPPH free radical scavenging assay; details: 30 min, room temperature, dark, 517 nm; mean ± SD, n = 3; read-out: DPPH^• Scavenge IC50
From the text: The 2,2-diphenyl-1-pycrylhydrazyl free radical (DPPH^•) scavenging method is widely used to evaluate the free radical scavenging ability of natural antioxidants. 2,2-Diphenyl-1-pycrylhydrazyl is a stable nitrogen centered free radical, which has a violet color that changes to yellow after reduction by the process of either hydrogen atom or single electron transfer mechanism. Compounds that are able to execute this reaction can be considered antioxidants and therefore radical scavengers. In the radical form, the DPPH molecule has an absorbance of 517 nm, which disappears after the acceptance of an electron or hydrogen radical from an antioxidant compound, to become a stable diamagnetic molecule. The DPPH^• scavenging activities of the tested compounds were estimated using the method of [35] with slight modification. To 1 mL methanolic solution of DPPH^• (0.08 mM), 0.1 mL of the tested compounds were added. The resulting mixture was shaken thoroughly and allowed to stand at room temperature in the dark for 30 min, after which the absorbance of the solution was measured at 517 nm. L(+)-Ascorbic acid was used as the positive control. The negative control contained DPPH^• and methanol. The ability to scavenge DPPH radical was calculated using the equation:(2) % DPPH radical scavenge = (1 − At/A0) × 100 where A0 is the absorbance of the control and At is the absorbance of the tested compound. The DPPH^• absorbance decreases with an increase in the DPPH radical scavenging activity.
(§1) All data on AChE inhibition/antioxidant activity are the average of triplicate analyses (n = 3) and the data were recorded as mean ± standard deviation. Regression analysis was performed to calculate the dose-response relation and IC50 values were obtained from the equations y = a ± bx.

[2] = ABTS radical cation scavenging assay; details: 7 min, room temperature, 734 nm; mean ± SD, n = 3; read-out: ABTS^•+ Scavenge IC50
Description: The 2,2′-azinobis(3-ethylbenzothiazoline-6-sulphonic acid) radical cation (ABTS^•+), which absorbs at 734 nm, is formed by oxidation of the commercially available neutral species. This oxidation can be done by potassium persulphate, manganese (IV) oxide, or electrochemical methods. In the presence of a hydrogen-donating antioxidant, the […] quenches the hydrogen atom, which is followed by decolorization. In this study, the ABTS^•+ was produced by mixing 7 mM ABTS stock solution with 2.45 mM potassium persulfate and allowing the mixture to stand in a dark at room temperature for 16 h before use. Different concentrations of the tested compounds (0.1 mL) were added to 1 mL ABTS^•+ solution. The reaction mixtures were mixed thoroughly, incubated at room temperature for 7 min, and the absorbance was recorded at 734 nm. The ability to scavenge the ABTS radical cation was calculated using the following equation:(3) % ABTS radical cation scavenge = (1 − At/A0) × 100 where A0 is the absorbance of the control and At is the absorbance of the tested compound. The ABTS^•+ solution without any sample was used as a control, prepared by using the same procedure. From the percentage of the scavenging activity at different tested compounds concentrations, IC50 values were calculated and compared with those of standard L(+)-ascorbic acid solution.
as §1

[3] = Ferric-reducing antioxidant power (FRAP) assay; details: pH 3.6, 6 min, 593 nm; mean ± SD, n = 3
Description: The FRAP assay is a typical electron transfer-based method that measures the reduction of (Fe^3+)-ligand complex to the intensely blue-colored ferrous (Fe^2+)-ligand complex by antioxidants. The FRAP assay is carried out under acidic pH conditions in order to maintain iron solubility and more importantly, drive electron transfer. This will increase the redox potential, causing a shift in the dominant reaction mechanism. The FRAP assay was done according to the method described by Benzie and Strain [40] with slightly modifications. The stock solutions included 300 mM acetate buffer (pH 3.6), 10 mM 2,4,6-tris(2-pyridyl)-s-triazine (TPTZ) solution in ethanol, and 20 mM FeCl3 solution in 20 mM HCl. […] An aliquot of 0.1 mL of the tested compound was allowed to react with 3.0 mL of the FRAP working solution and 0.3 mL of water. […] The results are expressed as L(+)-ascorbic acid equivalent (AAE).
(§2) Regression analysis was performed to calculate the dose-response relation and IC50 values were obtained from the equations y = a ± bx.

[4] = Fe(II)-chelating assay (inhibition of Fe^2+–ferrozine complex formation); details: 10 min, room temperature, 562 nm
From the text: Among the transition metals, Fe^2+ ions are well-known for their significant role as a prooxidants in the lipid oxidation process and the formation of hydroxyl radicals in Fenton-type reactions. However, effective chelating agents can reduce the damage resulting from these reactions. The most important spectrophotometric method for studying chelation activity is the inhibition of the Fe^2+–ferrozine complex formation, during which ferrozine reacts quantitatively with Fe^2+ ions in the […] of a chelating agent and complex formation is disrupted. Measurement of color reduction therefore allows estimation of the metal chelating activity of the coexisting chelator. The chelating abilities on Fe^2+ by the tested compounds were estimated by the method as described by Dinis. Briefly, 0.4 mL of the tested compound was added to 0.05 mL of FeCl2 (2 mM) solution. The reaction was initiated by the addition of ferrozine (0.2 mL, 5 mM). The total volume of the systems was adjusted to 4 mL with ethanol. Then, the mixture was shaken vigorously and left at room temperature for 10 min. […] The percentage of chelating effect was calculated by using the equation below:(4) % Chelating effect = (1 − At/A0) × 100 where A0 is the absorbance of the control and At is the absorbance of the tested compound.
as §2

[5] = target: acetylcholinesterase (AChE) from Electrophorus electricus (Electrophorus electricus, UniProt O42275); experiment: biochemical; details: AChE from E. electricus; 15 min incubation at 37 °C, pH 8; mean ± SD, n = 3; read-out: AChE Inhibition IC50
[6] = read-out: Chelation ability IC50 (Fe^2+ ions)

acetylcholinesterase (AChE) from Electrophorus electricus, sequence (O42275 24-633): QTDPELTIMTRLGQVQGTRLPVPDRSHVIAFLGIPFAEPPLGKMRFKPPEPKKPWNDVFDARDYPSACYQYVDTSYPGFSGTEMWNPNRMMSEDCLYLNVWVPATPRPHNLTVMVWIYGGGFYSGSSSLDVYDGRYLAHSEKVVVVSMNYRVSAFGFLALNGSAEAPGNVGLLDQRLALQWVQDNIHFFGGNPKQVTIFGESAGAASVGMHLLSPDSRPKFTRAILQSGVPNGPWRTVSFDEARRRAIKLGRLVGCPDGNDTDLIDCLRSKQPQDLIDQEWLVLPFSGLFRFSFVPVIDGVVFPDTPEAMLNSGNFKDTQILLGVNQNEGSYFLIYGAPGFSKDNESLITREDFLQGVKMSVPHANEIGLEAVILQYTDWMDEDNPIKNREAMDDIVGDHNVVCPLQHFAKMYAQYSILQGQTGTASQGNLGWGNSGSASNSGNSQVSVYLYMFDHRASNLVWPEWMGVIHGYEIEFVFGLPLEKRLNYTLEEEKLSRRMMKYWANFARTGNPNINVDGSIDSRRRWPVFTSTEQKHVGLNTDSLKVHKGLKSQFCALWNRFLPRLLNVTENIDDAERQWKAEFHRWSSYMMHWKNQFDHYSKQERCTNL

SMILES | IC50 [1] | IC50 [2] | FRAP AAE (L(+)-ascorbic acid equivalent) [3] | IC50 ([4]; read-out: Chelation of ferrous ions IC50) | IC50 [5] | IC50 [4, 6]
O=C(/C=C/c1ccc(O)c(O)c1)NCCc1ccc(O)c(O)c1 [N-trans-Caffeoyldopamine] | 5.95 ± 0.12 µM | 0.24 µM | 822.45 μmol/mmol and 822.45 ± 13.53 μmol/mmol | 3480 µM | 19.1 ± 0.83 µM | 
O=C([O-])CN(CCN(CC(=O)[O-])CC(=O)O)CC(=O)O.[Na+].[Na+] [Na2EDTA, disodium ethylenediaminetetraacetate] |  |  |  |  |  | 10 µM
O=C(O)/C=C/c1ccc(O)c(O)c1 [trans-Caffeic acid] | 18.9 ± 0.22 µM | 1.19 ± 0.02 µM | 526.05 ± 12.87 μmol/mmol |  |  | 12900 µM
COc1cc(/C=C/C(=O)O)ccc1O [trans-Ferulic acid] | 19.93 ± 0.18 µM | 1.62 ± 0.01 µM |  |  | 20.6 ± 0.65 µM | 5060 µM
O=C1O[C@H]([C@@H](O)CO)C(O)=C1O [L(+)-Ascorbic acid] | 1.14 ± 0.03 µM | 0.11 µM |  |  |  | 
COc1cc(/C=C/C(=O)NCCc2ccc(O)c(O)c2)ccc1O [N-trans-Feruloyldopamine] | 12.29 ± 0.04 µM | 0.74 µM | 661.53 ± 13.51 μmol/mmol |  | 8.52 ± 0.27 µM | 3170 µM

Reference: PMC6027674, “Acetylcholinesterase Inhibition and Antioxidant Activity of N-trans-Caffeoyldopamine and N-trans-Feruloyldopamine” (Scientia Pharmaceutica, 2018)
